Patent US20100204150A1, “USE OF A PEPTIDE AS A THERAPEUTIC AGENT” (priority 2007, published 2010)
Where no end group is shown, it is not given here. [ ]: non-standard residue; d: D form.

Legend:
[1] = test system: hepatitis B virus (HBV) ayw strain; assay: HBV assay in HepG2-2.2.15 cells (secreted HBV DNA, TaqMan PCR); format: cell-based; settings: 10 micrograms per ml, six days, combination 0.95 mole peptide 1 and 1.05 mole peptide 2
From the text: HepG2-2.2.15 is a stable cell line containing the hepatitis B virus (HBV) ayw strain genome (ATCC Cat. No. CRL-11997). Antiviral compounds blocking any late step of viral replication such as transcription, translation, pregenome encapsidation, reverse transcription, particle assembly and release can be identified and characterized using this cell line. In this assay, an active compound will reduce the production of secreted HBV from cells, measured by utilizing real time quantitative PCR (TaqMan) assay to directly and accurately measure HBV DNA copies.
HepG2-2.2.15 cells were plated in 96-well microtiter plates. After 16-24 hours the confluent monolayer of HepG2-2.2.15 cells was washed and the medium was replaced with complete medium containing test peptides—10 micrograms per ml—in duplicate. […] Six days following the initial administration of the peptides, the cell culture supernatants was collected, treated with pronase and DNAse and then used in a real-time quantitative TaqMan PCR assay. The PCR-amplified HBV DNA was detected in real-time by monitoring increases in fluorescence signals that result from the exonucleolytic degradation of a quenched fluorescence probe molecule that hybridizes to the amplified HBV DNA. […] Antiviral activity was calculated from the reduction in HBV DNA levels (% virus control). […]

Interleukin-2 (IL-2) = assay: Th1/Th2 cytokine profiling assay: IL-2; format: cell-based, mouse; settings: 10 micrograms per ml; Ovalbumin-restimulated murine spleen cells; 72 hours
Protocol: (§1) On day 50, spleens of the mice were harvested (3 weeks after last boost with Ovalbumin). Cells were cultured (2×10^5/well in triplicate) and incubated with culture medium or test peptides—10 micrograms per ml—for 30 min. […] This kit can be used to measure Interleukin-2 (IL-2), Interleukin-4 (IL-4), Interleukin-5 (IL-5), Interferon-γ (IFN-γ), and Tumor Necrosis Factor-a (TNF-a) protein levels in a single sample. The kit performance has been optimized for analysis of physiologically relevant concentrations (μg/ml levels) of specific cytokine proteins in tissue culture supernatants and serum samples.

Interferon-γ (IFN-γ) = assay: Th1/Th2 cytokine profiling assay: IFN-γ; format: cell-based, mouse; settings: 10 micrograms per ml; Ovalbumin-restimulated murine spleen cells; 72 hours
Protocol: as §1

Interleukin-5 (IL-5) = assay: Th1/Th2 cytokine profiling assay: IL-5; format: cell-based, mouse; settings: 10 micrograms per ml; Ovalbumin-restimulated murine spleen cells; 72 hours
Protocol: as §1

Interleukin-4 (IL-4) = assay: Th1/Th2 cytokine profiling assay: IL-4; format: cell-based, mouse; settings: 10 micrograms per ml; Ovalbumin-restimulated murine spleen cells; 72 hours
Protocol: as §1

[2] = test system: Tumor Necrosis Factor-a (TNF-a); assay: Th1/Th2 cytokine profiling assay: TNF-alpha; format: cell-based, mouse; settings: 10 micrograms per ml; Ovalbumin-restimulated murine spleen cells; 72 hours
Protocol: as §1

[3] = test system: Primary Human endothelial cells (HUVEC); assay: Endothelial cell migration assay; format: cell-based; settings: 10 micrograms per ml, 22 hours
Protocol: Thereafter, designated concentration of testing peptides was added in duplicate wells.

HUVEC = assay: Endothelial tube formation assay; format: cell-based, human; settings: 10 micrograms per ml, 20 hours
From the text: Positive control was vehicle only.

HCMV strain AD169 = assay: HCMV plaque formation assay in MRC-5 cells; settings: 10 micrograms per ml, 7-10 days
HIV-1IIIB = assay: HIV-1 antiviral assay in CEM-SS cells (MTS readout)

Compound	inhibition of HBV replication as compared to the virus control infection [1]	increase of the production of IL-2 (Interleukin-2 (IL-2))	decrease of the production of IFN-γ (Interferon-γ (IFN-γ))	decrease of the production of IL-5 (Interleukin-5 (IL-5))	change of the production of IL-4 (Interleukin-4 (IL-4))	change of the production of TNF-alpha [2]	inhibition of the migration of human endothelial cells [3]	increase of the tube formation of human endothelial cells (HUVEC)	inhibition of HCMV plaque formation as compared to the virus control experiment (HCMV strain AD169)	increase of the production of IFN-γ (Interferon-γ (IFN-γ))	change of the production of IL-5 (Interleukin-5 (IL-5))	increase of the production of IL-4 (Interleukin-4 (IL-4))	increase of the migration of endothelial cells [3]	antiviral activity of positive control compounds (HIV-1) (HIV-1IIIB)
HPFHL[dL]VY-OH [Peptide 1]	24.3%	82.1%	43.3%	34.5%	did not significantly change	did not significantly change	26%	2%	did not inhibit	–	–	–	–	–
Ac-Arg-Phe-Met-Trp-Met-Arg-NH2 (Ac-RFMWMR-NH2) [Peptide 2]	26.3%	56.5%	–	–	–	did not significantly change	–	4%	2.9%	118.6%	did not significantly change	56.2%	15%	–
Cc1cn([C@H]2C[C@H](N=[N+]=[N-])[C@@H](CO)O2)c(=O)[nH]c1=O [AZT]	–	–	–	–	–	–	–	–	–	–	–	–	–	expected levels of antiviral activity
CC(C)(C)NC(=O)[C@@H]1CN(Cc2cccnc2)CCN1C[C@@H](O)C[C@@H](Cc1ccccc1)C(=O)N[C@H]1c2ccccc2C[C@H]1O [indinavir]	–	–	–	–	–	–	–	–	–	–	–	–	–	expected levels of antiviral activity
